Assay results from ChEMBL document CHEMBL4342522 (J Med Chem, 2020).
Activity calls are given as the source filed them. The rule behind the calls is not given here.

How the values were obtained:
[1] = molecular target: T1, Bromodomain-containing protein 4 (Homo sapiens, UniProt O60885); experiment: biochemical; format: cell-based
Description: Inhibition of human N-terminal His6 tagged BRD4 BD1 (57 to 168) residues expressed in Escherichia coli BL21(DE3) cells after 1 hr by TR-FRET assay

[2] = molecular target: T1, Bromodomain-containing protein 4; experiment: Inhibition of human N-terminal His6 tagged BRD4 BD2 (352 to 457) residues expressed in Escherichia coli BL21(DE3) cells after 1 hr by TR-FRET assay
SKM-1 [3] = experiment: Antiproliferative activity against human SKM1 cells assessed as reduction in cell viability after 5 days by CellTiter-Glo assay; format: functional, cell-based; conditions: SKM-1, 120 h
NCI-H1299 = experiment: Antiproliferative activity against human H1299 cells assessed as reduction in cell viability after 5 days by CellTiter-Glo assay; format: functional, cell-based; conditions: NCI-H1299, 120 h
[4] = Unbound hepatic clearance in human liver microsomes; format: ADME, Microsome
[5] = Unbound hepatic clearance in mouse liver microsomes; format: ADME, Microsome
[6] = Unbound hepatic clearance in rat liver microsomes; format: ADME, Microsome
[7] = Permeability in dog MDCK cells by PAMPA; format: ADME, cell-based, Canis lupus familiaris; conditions: read-out: permeability
SKM-1 [8] = experiment: Antitumor activity against human SKM1 cells xenografted in SCID mouse assessed as tumor growth inhibition at 60 mg/kg, po bid by caliper method; format: functional, organism-based

Row | Ki [1] [nM] | Ki [2] [nM] | IC50 (SKM-1 [3]) [nM] | IC50 (NCI-H1299) [nM] | CL free [4] [mL/min/kg] | CL free [5] [mL/min/kg] | CL free [6] [mL/min/kg] | Papp [7] [×10⁻⁶ cm/s] | SMILES | inhibition (SKM-1 [8])
1 | 45 | 1 | 9.8 | 730 | 267 | 1880 | 1350 | 10.5 | CCNC(=O)c1cc2c(-c3cc(S(=O)(=O)CC)ccc3Oc3c(C)cccc3Br)cn(C)c(=O)c2[nH]1 | 
2 | 6.5 | 0.5 | 3.3 | 340 | 200 | 1200 | 1200 | 13.8 | CCNC(=O)c1cc2c(-c3cc(S(=O)(=O)CC)ccc3Oc3ccccc3Cl)cn(C)c(=O)c2[nH]1 | 
3 | 140 | 1.8 | 50 | 1300 | 450 | 2170 | 633 | 15.9 | CCNC(=O)c1cc2c(-c3cc(S(=O)(=O)CC)ccc3-n3ccc4ccccc43)cn(C)c(=O)c2[nH]1 | 

The remaining lines, values behind:

Row | SMILES | Ki [1] [nM] | Ki [2] [nM] | IC50 (SKM-1 [3]) [nM] | IC50 (NCI-H1299) [nM] | CL free [4] [mL/min/kg] | CL free [5] [mL/min/kg] | CL free [6] [mL/min/kg] | Papp [7] [×10⁻⁶ cm/s] | inhibition (SKM-1 [8])
4 | CCS(=O)(=O)Nc1ccc(Oc2ccc(F)cc2F)c(-c2cn(C)c(=O)c3[nH]ccc23)c1 |  |  |  |  |  |  |  |  | Active
5 | CCNC(=O)c1cc2c(-c3cc(NC(C)=O)ccc3Oc3c(C)cc(F)cc3C)cn(C)c(=O)c2[nH]1 | 90 | 1.1 | 14 | 1600 | 183 | 2330 | 250 | 1.06 | 
6 | Cc1cccc(C)c1Oc1ccc(C(C)(C)O)cc1-c1cn(C)c(=O)c2[nH]c(C(=O)NC(C)(C)C)cc12 | 220 | 1.1 | 14 | 1400 | 783 | 4330 | 3000 | 1.26 | 
7 | Cn1cc(-c2cc(S(C)(=O)=O)ccc2Oc2ccc(F)cc2F)c2cc(C(N)=O)[nH]c2c1=O | 8.6 | 1.2 | 10 | 600 | 76.7 | < 120 | < 68.3 | 2.4 | 
8 | CCNC(=O)c1cc2c(-c3cc(S(C)(=O)=O)ccc3Oc3c(C)cccc3C)cn(C)c(=O)c2[nH]1 | 140 | 1.2 | 11 to 12 | 790 | 91.7 | 550 | 650 | 10.7 | 
